This is an account of results in patent publication US12060400B2, “Peptides for use in immunotherapy against cancers” (Immatics Biotechnologies GmbH, priority 2018, dated 2024).

This assay deals with HLA-A*24. The assay can be described thus: MHC binding assay: UV-ligand exchange with beta2m ELISA (peptide exchange yield). The arrangement: species or system human. Particulars: Table 11, binding to HLA-A*24, UV-ligand exchange. The essentials: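 Peptide-MHC complexes generated by UV-induced exchange of a photocleavable ligand with the test peptide; exchange yield quantified by streptavidin-capture ELISA detecting β2m (HRP anti-β2m, TMB, A450). Samples diluted 100-fold, with refolded HLA-A*02:01/MLA-001 monomers (15-500 ng/ml) as standards.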
In the case of “288 (MGKGSISFLF; listed as Homo sapiens) [compound 288]”, the “Peptide exchange (MHC class I binding score, peptide exchange yield)” value (from here on “Peptide exchange”) is reported as “++ (>20% = ++)”.

Consider “289 (RTLNEIYHW; listed as Homo sapiens) [compound 289]”, for which the “Peptide exchange” value is “++ (>20% = ++)”.

Regarding “290 (VTPKMLISF; listed as Homo sapiens) [compound 290]”, the “Peptide exchange” value was “+ (>10% = +)”.

Regarding “291 (YTRLVLQF; listed as Homo sapiens) [compound 291]”, the “Peptide exchange” value is given as “++ (>20% = ++)”.

For “292 (KMFPKDFRF; listed as Homo sapiens) [compound 292]”, the “Peptide exchange” value is “++ (>20% = ++)”.

Take “294 (KMGRIVDYF; listed as Homo sapiens) [compound 294]”: the “Peptide exchange” value is “++++ (>75% = ++++)”.

On to “295 (KYNRQSMTL; listed as Homo sapiens) [compound 295]”, for which the “Peptide exchange” value is recorded as “++++ (>75% = ++++)”.

In the case of “296 (YQRPDLLLF; listed as Homo sapiens) [compound 296]”, the “Peptide exchange” value is given as “++ (>20% = ++)”.

Regarding “297 (LKSPRLFTF; listed as Homo sapiens) [compound 297]”, the “Peptide exchange” value was “++ (>20% = ++)”.

Take “298 (TYETVMTFF; listed as Homo sapiens) [compound 298]”: the “Peptide exchange” value is listed as “++++ (>75% = ++++)”.

Turning to “299 (FLPALYSLL; listed as Homo sapiens) [compound 299]”, the “Peptide exchange” value was “+++ (>50 = +++)”.

As for “300 (LFALPDFIF; listed as Homo sapiens) [compound 300]”, the “Peptide exchange” value is listed as “++ (>20% = ++)”.

Regarding “302 (YQGSLEVLF; listed as Homo sapiens) [compound 302]”, the “Peptide exchange” value is on record as “++ (>20% = ++)”.

On to “303 (RFLDRGWGF; listed as Homo sapiens) [compound 303]”, for which the “Peptide exchange” value was “++++ (>75% = ++++)”.

For “306 (RYILEPFFI; listed as Homo sapiens) [compound 306]”, the “Peptide exchange” value was “++++ (>75% = ++++)”.

Consider “307 (RILTEFELL; listed as Homo sapiens) [compound 307]”, for which the “Peptide exchange” value is “+++ (>50 = +++)”.

Take “308 (AAFISVPLLI; listed as Homo sapiens) [compound 308]”: the “Peptide exchange” value was “++++ (>75% = ++++)”.

Consider “309 (AFISVPLLI; listed as Homo sapiens) [compound 309]”, for which the “Peptide exchange” value is recorded as “++++ (>75% = ++++)”.

With “310 (EFINGWYVL; listed as Homo sapiens) [compound 310]”, the “Peptide exchange” value is on record as “++ (>20% = ++)”.

Take “311 (IQNAILHLF; listed as Homo sapiens) [compound 311]”: the “Peptide exchange” value is “++++ (>75% = ++++)”.

As for “312 (YLCMLYALF; listed as Homo sapiens) [compound 312]”, the “Peptide exchange” value is on record as “++ (>20% = ++)”.

In the case of “313 (IFMENAFEL; listed as Homo sapiens) [compound 313]”, the “Peptide exchange” value was “++++ (>75% = ++++)”.

On to “314 (SQHFNLATF; listed as Homo sapiens) [compound 314]”, for which the “Peptide exchange” value is recorded as “++ (>20% = ++)”.

For “315 (VYDYIPLLL; listed as Homo sapiens) [compound 315]”, the “Peptide exchange” value is “++++ (>75% = ++++)”.

As for “316 (IWAERIMF; listed as Homo sapiens) [compound 316]”, the “Peptide exchange” value is “+++ (>50 = +++)”.

In the case of “318 (VQADAKLLF; listed as Homo sapiens) [compound 318]”, the “Peptide exchange” value is “+ (>10% = +)”.

Turning to “319 (ATATLHLIF; listed as Homo sapiens) [compound 319]”, the “Peptide exchange” value was “+ (>10% = +)”.

In the case of “320 (EVYQKIILKF; listed as Homo sapiens) [compound 320]”, the “Peptide exchange” value is “++++ (>75% = ++++)”.

For the substance “321 (VYTVGHNLI; listed as Homo sapiens) [compound 321]”, the “Peptide exchange” value is “++++ (>75% = ++++)”.

Turning to “322 (SFISPRYSWLF; listed as Homo sapiens) [compound 322]”, the “Peptide exchange” value is reported as “++++ (>75% = ++++)”.

Turning to “323 (NYSPVTGKF; listed as Homo sapiens) [compound 323]”, the “Peptide exchange” value is given as “++++ (>75% = ++++)”.

With “325 (IFMGAVPTL; listed as Homo sapiens) [compound 325]”, the “Peptide exchange” value is given as “++++ (>75% = ++++)”.

“326 (VHMKDFFYF; listed as Homo sapiens) [compound 326]”: the “Peptide exchange” value is recorded as “++++ (>75% = ++++)”.

In the case of “327 (KWKPSPLLF; listed as Homo sapiens) [compound 327]”, the “Peptide exchange” value is given as “++++ (>75% = ++++)”.

Turning to “328 (IYLVGGYSW; listed as Homo sapiens) [compound 328]”, the “Peptide exchange” value is “++++ (>75% = ++++)”.

As to “329 (YLGKNWSF; listed as Homo sapiens) [compound 329]”, the “Peptide exchange” value is “++ (>20% = ++)”.

Take “330 (DYIQMIPEL; listed as Homo sapiens) [compound 330]”: the “Peptide exchange” value is on record as “++++ (>75% = ++++)”.

With “331 (EYIDEFQSL; listed as Homo sapiens) [compound 331]”, the “Peptide exchange” value is given as “++++ (>75% = ++++)”.

“332 (VYCSLDKSQF; listed as Homo sapiens) [compound 332]”: the “Peptide exchange” value was “++++ (>75% = ++++)”.

“333 (RYADLLIYTY; listed as Homo sapiens) [compound 333]”: the “Peptide exchange” value is on record as “++++ (>75% = ++++)”.

With “334 (KVFGSFLTL; listed as Homo sapiens) [compound 334]”, the “Peptide exchange” value is on record as “++ (>20% = ++)”.

For the substance “335 (RYQSVIYPF; listed as Homo sapiens) [compound 335]”, the “Peptide exchange” value is “++++ (>75% = ++++)”.

Take “336 (VYSDLHAFY; listed as Homo sapiens) [compound 336]”: the “Peptide exchange” value is listed as “++++ (>75% = ++++)”.

For the substance “337 (SHSDHEFLF; listed as Homo sapiens) [compound 337]”, the “Peptide exchange” value was “+ (>10% = +)”.

As to “338 (VYLTWLPGL; listed as Homo sapiens) [compound 338]”, the “Peptide exchange” value was “++++ (>75% = ++++)”.

Take “339 (KQVIGIHTF; listed as Homo sapiens) [compound 339]”: the “Peptide exchange” value was “+ (>10% = +)”.

In the case of “340 (FPPTPPLF; listed as Homo sapiens) [compound 340]”, the “Peptide exchange” value is on record as “+ (>10% = +)”.

Consider “341 (RYENVSILF; listed as Homo sapiens) [compound 341]”, for which the “Peptide exchange” value is listed as “++++ (>75% = ++++)”.

Regarding “342 (MYGIVIRTI; listed as Homo sapiens) [compound 342]”, the “Peptide exchange” value is recorded as “++++ (>75% = ++++)”.

“343 (EYQQYHPSL; listed as Homo sapiens) [compound 343]”: the “Peptide exchange” value is on record as “++++ (>75% = ++++)”.

Take “344 (YAYATVLTF; listed as Homo sapiens) [compound 344]”: the “Peptide exchange” value is reported as “++ (>20% = ++)”.

Consider “345 (RYLEEHTEF; listed as Homo sapiens) [compound 345]”, for which the “Peptide exchange” value was “++++ (>75% = ++++)”.

“346 (TYIDFVPYI; listed as Homo sapiens) [compound 346]”: the “Peptide exchange” value is “++++ (>75% = ++++)”.

As for “348 (RSWENIPVTF; listed as Homo sapiens) [compound 348]”, the “Peptide exchange” value is on record as “++ (>20% = ++)”.

Take “349 (IYMTTGVLL; listed as Homo sapiens) [compound 349]”: the “Peptide exchange” value is recorded as “++++ (>75% = ++++)”.

Regarding “350 (VYKWTEEKF; listed as Homo sapiens) [compound 350]”, the “Peptide exchange” value is given as “++++ (>75% = ++++)”.

Turning to “351 (GYFGTASLF; listed as Homo sapiens) [compound 351]”, the “Peptide exchange” value is given as “++++ (>75% = ++++)”.

“352 (NAFEAPLTF; listed as Homo sapiens) [compound 352]”: the “Peptide exchange” value is “+++ (>50 = +++)”.

“353 (AAFPGAFSF; listed as Homo sapiens) [compound 353]”: the “Peptide exchange” value is recorded as “++ (>20% = ++)”.

Consider “354 (QYIPTFHVY; listed as Homo sapiens) [compound 354]”, for which the “Peptide exchange” value is recorded as “++++ (>75% = ++++)”.

For “355 (VYNNNSSRF; listed as Homo sapiens) [compound 355]”, the “Peptide exchange” value was “++++ (>75% = ++++)”.

As for “356 (YSLEHLTQF; listed as Homo sapiens) [compound 356]”, the “Peptide exchange” value is recorded as “++ (>20% = ++)”.

As to “357 (RALLPSPLF; listed as Homo sapiens) [compound 357]”, the “Peptide exchange” value is reported as “++ (>20% = ++)”.
